From patent US20130183249A1, “Stimulus Sensitive Magnetic Nanocomposite Using Pyrene Polymer, and Contrast Medium Composition Containing the Nanocomposite” (INDUSTRY ACADEMIC COOPERATION FOUNDATION YOUNSEI UNIVERSITY, priority 2010, published 2013)

Test system: NIH3T6.7 and MDA-MB-231 cells
Experiment: Cell targeting ability and drug release by fluorescence microscopy
Conditions: 0.05 mM based on doxorubicin, 30 minutes incubation
Protocol: For each of 12 wells, a cover glass was put on a bottom, 3×10^5 of each of NIH3T6.7 and MDA-MB-231 cells were dispensed on the glass per well to incubate for 12 hours, and washed with PBS three times. After the washing with PBS, 0.05 mM of a Herceptin-binding target-specific stimuli-sensitive nanocomposite based on doxorubicin, an IgG-binding stimuli-sensitive nanocomposite as a control group, and doxorubicin were each added to the cells, and incubated for 30 minutes. After the cells were washed with PBS, a dye for a cell nucleus (Hoechst dye) was added to the cells, reacted for 10 minutes and washed with PBS three times, and then the cover glass was fixed to a slide glass to observe microscope images.

`COc1cccc2c1C(=O)c1c(O)c3c(c(O)c1C2=O)C[C@@](O)(C(=O)CO)C[C@@H]3O[C@H]1C[C@H](N)[C@H](O)[C@H](C)O1` [Doxorubicin, doxorubicin] was tested, and the “doxorubicin identified in cell nucleus (microscope images)” value was “identified from a nucleus of the doxorubicin-treated cell without distinction of cells”.
